Reference: US7781398B2, “Drug comprising synthetic peptide analogs for the treatment of cancer” (Dabur Pharma Ltd., priority 2002, dated 2010)
Non-standard residues stand in square brackets, D forms with d. Residues, ends and D or L forms follow the SMILES beside them. No end group written: not given here. Ac5c = NC1(C(=O)O)CCCC1; Aib = CC(C)(N)C(=O)O

Assays:
Type in all cases: cell-based
[1] = system: intracellular cAMP in MCF7 breast cancer cells; assay: cAMP levels in breast cancer cells (sandwich ELISA); conditions: 30 minutes, final peptide concentration 10^−9M, Forskolin 1 micromolar
Description: Enzyme linked sandwich immunosorbent assay was carried out on breast cancer cells (MCF7) to study the modulation in levels of cAMP upon treatment with the peptides and their combinations. The cells were cultured in sterile 6 well plates at a density of 0.5×10^6/well in DMEM supplemented with 10% FCS, and allowed to adhere overnight.
The cells were co-incubated with Forskolin at a concentration of 1 micromolar. The cells were scraped using a cell scraper and pelleted. The cell pellet was suspended in appropriate resuspension buffer (50 mM Tris, containing EDTA, 0.2 mM phenyl methyl sulfonyl fluoride (PMSF), 1 ug/ml pepstatin and 0.5 microgram/ml leupeptin adjusted to pH 7.4). The cell extracts were transferred to microcentrifuge tubes and centrifuged for 5 minutes at 10000×g. cAMP standards ranging in concentrations from 200 units/ml to 0 units/ml were prepared immediately prior to the start of the assay. Fluorescein isothiocyanate (FITC) conjugated monoclonal antibody directed to cAMP was added to microtitre wells precoated with primary monoclonal antibody against cAMP. 50 ul of sample lysates, and cAMP standards were added in duplicates in the microtitre wells containing both the monoclonals to cAMP. The wells were incubated at room temperature for 2 hours. The microtitre wells were washed three times with appropriate wash buffer (PBS 50 mM, with Tween 0.5%) and the appropriate dilution of anti FITC horse radish peroxidase conjugate was added and incubated for 30 minutes. The microtitre wells were washed thrice with the wash buffer and subsequently with distilled water. Tetra-methylbenzidine was added to each well and incubated in dark for 30 minutes at room temperature. The absorbance was measured in each well at dual wavelength of 450/595 nm within 30 minutes of the addition of stop solution and the amount of cAMP present in the cell samples calculated.

Caspase-3 = Caspase-3 induction (DEVD-pNA colorimetric) in cancer cells; conditions: each peptide 10^−8M, 6 hours
Description: PA-1 (Ovary), MDA.MB.453 (breast), HT29 (colon) and A549 (lung) cancer cells were cultured in 25 cm^2 tissue culture flasks at 37° C. in a humidified incubator containing 5% CO2. When cultures reached pre-confluence individual peptides of the combination and different combinations of the peptides as shown in Table 8 were added to different flasks such that the final concentration of each peptide in the flask was 10^−8M. The untreated flasks served as controls. The cells were incubated with drug for 6 hours.
After 6 hours of incubation cells were collected by trypsin treatment followed by centrifugation at 2000 r.p.m. for 10 minutes. The supernatant was gently removed and discarded and Lysis Buffer was added to the cell pellet (25 microliter of lysis buffer per 1×10^4 cells I a 15 ml conical tube) and incubated on ice for 10 minutes and centrifuged at 10,000-×g for 1 minute. 50 microliter of supernatant (cell lysate) was transferred to the wells of a 96-well plate. 2× Reaction buffer was prepared by adding 10 microliter of fresh DTT stock per 1 ml of 2× Reaction Buffer. 50 micro liter 2× Reaction Buffer was added to each well followed by addition of 5 micro liter of Caspase-3 colorimetric substrate (DEVD-pNA). The plate was incubated for 1-2 hours at 37° C. Following incubation the plate was read on a microplate reader at 405 nm-wavelength light the level of caspase enzymatic activity in the cell lys ate was directly proportional to the color reaction. The induction of caspase activity by the subcombinations was calculated as a percentage of control using the formula [(Sample OD/Control OD)−1]*100.

[2] = system: tyrosine phosphatase in MiaPaCa2 cells; assay: Tyrosine phosphatase activity in pancreatic cancer cells (colorimetric); conditions: 30 minutes, final peptide concentration 10^−9M
Description: The quantitation of tyrosine phosphatase was carried out colorimetrically by using their synthetic biotin labeled tyrosine phosphorylated peptide substrates. The enzyme reaction was quenched by the addition of a specific inhibitor, and the phosphorylated and dephosphorylated substrate is immobilized by binding to the streptavidin coated microtitre plate. The fraction of the unmetabolized substrate is determined by its anti phospho tyrosine antibody directly conjugated to peroxidase.
The cells were cultured in sterile 6 well plates at a density of 0.5×10^6/well in DMEM supplemented with 10% FCS, and allowed to adhere overnight. The medium was changed to DMEM. The cells were treated with appropriate concentrations of the peptide and their combinations shown in Table 6, for 30 minutes, such that in each case the final peptide concentration was 10^−9M.
The cells were lysed in appropriate lysis buffer (50 mM Tris, containing EDTA, 0.2 mM PMSF, 1 microgram/microliter pepstatin and 0.5 microgram/microliter leupeptin adjusted to pH 7.4). […]
The quantitation of phosphatase enzyme activity was performed with 30 microliter of specific substrates and the reaction was quenched with the addition of 100 micromolar sodium orthvanadate. […] After 3 washings, 100 microliter of the substrate POD was added to the wells, and the absorbance was read at 405 nm.

Molecule	cAMP (% Of Control) [1] [% Of Control]	Caspase-3 % INDUCTION (Caspase-3; A549) [%]	Caspase-3 % INDUCTION (Caspase-3; HT29) [%]	Caspase-3 % INDUCTION (Caspase-3; MDA.MB453) [%]	Caspase-3 % INDUCTION (Caspase-3; PA-1) [%]	% Induction of Tyrosine phosphatase [2] [%]
CC(C)C[C@H](NC(=O)[C@H](Cc1c[nH]cn1)NC(=O)C(C)(C)NC(=O)[C@@H](NC(=O)[C@H](C)NC(=O)[C@H](Cc1c[nH]c2ccccc12)NC(=O)[C@H](CCC(N)=O)NC(=O)[C@H](N)Cc1ccccc1)C(C)C)C(N)=O [SEQ ID NO: 2, D-Phe-Gln-Trp-Ala-Val-Aib-His-Leu-NH2] (H-[dF]QWAV[Aib]HL-NH2; N-terminus assumed)	15.4 ± 3.0					
CC(C)C[C@H](NC(=O)[C@@H](Cc1c[nH]c2ccccc12)NC(=O)[C@H](Cc1ccccc1)NC(=O)[C@@H](Cc1c[nH]c2ccccc12)NC(=O)[C@H](CCC(N)=O)NC(=O)[C@@H](Cc1ccccc1)NC(=O)[C@@H]1CCCN1C(=O)[C@H](CCCCN)NC(=O)[C@@H]1CCCN1C(=O)[C@H](N)CCCNC(=N)N)C(=O)NC1(C(N)=O)CCCC1 [SEQ ID NO: 3, D-Arg-Pro-Lys-Pro-D-Phe-Gln-D-Trp-Phe-D-Trp-Leu-Ac5c-NH2] (H-[dR]PKP[dF]Q[dW]F[dW]L[Ac5c]-NH2; N-terminus assumed)	13.3 ± 4.0	38.5 ± 3.8	28.4 ± 2.4	22.8 ± 3.8	46.2 ± 2.1	14.3 ± 3.5
C[C@@H](O)[C@H](NC(=O)[C@H]1NC(=O)[C@H]([C@@H](C)O)NC(=O)[C@H](CCCN)NC(=O)[C@@H](Cc2c[nH]c3ccccc23)NC(=O)[C@H](Cc2ccc(O)cc2)NC(=O)[C@@H](NC(=O)[C@H](N)Cc2ccccc2)CSSC1(C)C)C(N)=O [SEQ ID NO: 4, D-Phe-Cys-Tyr-D-Trp-Orn-Thr-Pen-Thr-NH2]	12.9 ± 5.0	28.4 ± 2.8	18.6 ± 1.9	18.9 ± 1.0	34.8 ± 1.3	15.6 ± 4.5
LMYPTYLK-OH [SEQ ID NO: 1, Leu-Met-Tyr-Pro-Thr-Tyr-Leu-Lys-OH]	25.2 ± 4.5					
